# Test results taken from patent US20040087514A1, “Nutritional compositions” (priority 2002, published 2004).
# Marks after values point to notes of the source that are not given here.
# Legend:
# Format in all cases: in vivo, human
# [1] = test system: GLP-1 secretion; assay: Clinical study, GLP-1 levels after ingestion of load (Example 1); conditions: for GLP-1 (A): mean
# Description: (§1) A randomized, placebo-controlled trial was performed in 20 subjects (12 women, 8 men) [body mass index (in kg/m^2): 23]. Subjects received 5 times at least one week apart- a load consisting of galactose (50 g) alone or in combination with guar gum (2,5 g), solved in 250 ml water, or 250 ml water without any additives. Prior to each treatment a catheter was placed in an anticubital vein. Eating behavior and dietary restraint status of subjects were investigated using a validated Dutch translation of the Three Factor Eating Questionnaire (TFEQ). The study was approved by the Medical Ethics Committee of the Maastricht University.
# [2] = test system: insulin release; assay: Clinical study, insulin levels after ingestion of load (Example 1); conditions: mean
# Description: as §1
# [3] = test system: C-peptide (indicator of insulin secretion); assay: Clinical study, C-peptide levels after ingestion of load (Example 1); conditions: mean
# Description: as §1
# [4] = test system: healthy, normal-weight subjects; assay: Clinical study, perception of satiety, Visual Analog Scale (Example 1); conditions: mean from 100 mm Visual Analog Scale
# Description: as §1
# [5] = Clinical study, plasma glucose, galactose, free fatty acids, glycerol (Example 1); conditions: data not shown
# Description: as §1
smiles,measurement,setting,value
"O=C[C@H](O)[C@@H](O)[C@@H](O)[C@H](O)CO [Galactose, galactose]",GLP-1 (A),"[1]; 0 minutes, 50 g galactose (+2,5 g guar gum) in 250 ml water",3.8 pmol/L
same,GLP-1 release compared to water,"[1]; 30 minutes after ingestion of the load, p<0.05",significantly elevated
same,GLP-1 (A),[1]; 30 minutes after ingestion,4.6^# pmol/l
same,GLP-1 (A),[1]; 60 minutes after ingestion,3.5 pmol/L
same,GLP-1 (A),[1]; 90 minutes after ingestion,3.2 pmol/L
same,GLP-1 (A),[1]; 120 minutes after ingestion,3.7 pmol/L
same,GLP-1 (A),[1]; 240 minutes after ingestion,3.7 pmol/L
same,Insulin (B),[2]; 0 minutes,7.3 mU/l
same,Insulin (B),[2]; 30 minutes after ingestion,21# mU/l
same,Insulin (B),[2]; 60 minutes after ingestion,13 mU/l
same,Insulin (B),[2]; 90 minutes after ingestion,12 mU/l
same,Insulin (B),[2]; 120 minutes after ingestion,9.9 mU/l
same,Insulin (B),[2]; 240 minutes after ingestion,4.7 mU/l
same,C-peptide (A),[3]; 0 minutes,0.61 nmol/L
same,C-peptide (A),[3]; 30 minutes after ingestion,1.03^# nmol/l
same,C-peptide (A),[3]; 60 minutes after ingestion,0.89^# nmol/l
same,C-peptide (A),[3]; 120 minutes after ingestion,0.88 nmol/L
same,Satiety (B),[4]; 0 minutes,27^ mm
same,Satiety (B),[4]; 30 minutes,34# mm
same,Satiety (B),[4]; 60 minutes,33# mm
same,Satiety (B),[4]; 90 minutes,25# mm
same,Satiety (B),[4]; 120 minutes,31# mm
same,Satiety (B),[4]; 240 minutes,20^ mm
same,galactose levels,[5],increased galactose levels significantly
